Measurements: PubChem BioAssay AID1919001 (Molecular Pharmacology Branch, DTP, NCI, 2023)

System: 699152-130-R-J1-PDC complex spheroid growth
Test: Anticancer human tumor 699152-130-R-J1-PDC patient-derived pancreatic carcinoma cell line growth inhibition [AhR]
Details: for IC50: curve of first compound; for viability, T/C: stronger effect = lower value
Excerpt: Multicellular complex tumor spheroid response to aryl hydrocarbon receptor antagonists in combination with a variety of drugs and investigational agents in selected tumor cell lines
The current study was undertaken to assess response to aryl hydrocarbon receptor antagonists in combination with standard-of-care drugs and investigational agents in solid tumor complex spheroid models. Complex spheroids include a stromal component modeled by human endothelial cells (HUVEC) and fibroblasts modeled by human mesenchymal stem cells (MSCs). The concentration ranges selected for each drug and investigational agent were based upon clinically achievable concentrations if the clinical Cmax of the agent was known.
Compounds. The drugs and investigational agents: BAY 2416964 (NSC825713), GNF351 (NSC835774), CH-223191 (NSC835775), CPI-455 (NSC825282), aza-TdCyd (NSC777586), decitabine (NSC127716), belinostat (NSC758774), entinostat (NSC756642), pevonedistat (NSC761192), tazemetostat (NSC777109), talazoparib (NSC765396), olaparib (NSC753686), selinexor (NSC780203), nedisertib (M3814, NSC802822), bortezomib (NSC756655), venetoclax (NSC766270), doxorubicin (NSC123127), elimusertib (BAY189344, NSC800525), ceralasertib (AZD6738, NSC777638), TAK-243 (NSC785004), alisertib (NSC759677), etoposide (NSC141540), topotecan (NSC609699), eribulin (NSC707389), gemcitabine (NSC613327), carboplatin (NSC241240), cisplatin (NSC119875), and SN-38 (NSC673596) were obtained from the National Cancer Institute (NCI) Developmental Therapeutics Program Chemical Repository (32). The FDA-approved anticancer drug set is available from the Developmental Therapeutics Program at https://dtp.cancer.gov/organization/dscb/obtaining/available plates.htm. […] The stock solutions were prepared in dimethyl sulfoxide (DMSO, Sigma-Aldrich, St. Louis, MO, cat. D2650), except for the platinum compounds which were prepared in saline (Quality Biological, Gaithersburg, MD, cat. 114-055-101), at 800-fold the tested concentration and stored at -70 degrees C prior to their use. All drugs and investigational agents were tested over a range starting from a high concentration at or near the clinical Cmax and decreasing in half-log increments. If the clinical Cmax for an agent had not been determined, the highest concentration tested was 10 microM (Table 1).
Cell Culture. All cells were maintained in an incubator at 37 degrees C and 5% CO2 with 95% humidity. The PDC lines were cultured according to standard operating procedures established by the NCI PDMR (https://pdmr.cancer.gov). Briefly, all PDCs were thawed and cultured in Matrigel-coated flasks prepared with a working solution of 1X Ham's F-12 nutrient mix, without supplementation (Invitrogen, Waltham, MA, cat. 11765054), 100 U/mL penicillin-streptomycin (Invitrogen, cat. 15140122), and 2.5% Matrigel (Corning Inc., Corning, NY, cat. 354248) for the first three passages. All PDCs were cultured in complete DMEM/F-12 media containing advanced DMEM/F-12 (Invitrogen, cat. 12634028), 4.9% defined fetal bovine serum, heat inactivated (HyClone Laboratories Inc., Logan, UT, cat. SH30070.03HI), 389 ng/mL hydrocortisone (Sigma-Aldrich, cat. H4001), 9.7 ng/mL human EGF recombinant protein (Invitrogen, cat. PHG0313), 23.4 microg/mL adenine (Sigma-Aldrich, cat. A2786), 97.3 U/mL penicillin-streptomycin (Invitrogen, cat. 15140122), 1.9 mM L-glutamine (Invitrogen, cat. 25030081), and 9.7 microM Y-27632 dihydrochloride (Tocris Bioscience, Bristol, United Kingdom, cat. 1254). The PDCs were cultured in complete DMEM/F12 media without 10 microM Y-27632 dihydrochloride for at least two passages prior to the screen. The established cell lines NCI-H1341 and […] were cultured in DMEM/F-12, HEPES (Invitrogen, cat. 11330032), 5% defined fetal bovine serum (HyClone Laboratories Inc., cat. SH30070.03), ITS premix universal culture supplement [insulin (5 microg/mL), transferrin (5 microg/mL), and selenious acid (5 ng/mL)] […]

[1] = second compound 0.1 µM, first compound 0.0316 µM
[2] = second compound 0.1 µM, first compound 0.1 µM
[3] = second compound 0.1 µM, first compound 0.316 µM
[4] = second compound 0.1 µM, first compound 1 µM
[5] = second compound 0.1 µM, first compound 3.16 µM
[6] = second compound 0.1 µM, first compound 10 µM
[7] = second compound 0.316 µM, first compound 0.0316 µM
[8] = second compound 0.316 µM, first compound 0.1 µM
[9] = second compound 0.316 µM, first compound 0.316 µM
[10] = second compound 0.316 µM, first compound 1 µM
[11] = second compound 0.316 µM, first compound 3.16 µM
[12] = second compound 0.316 µM, first compound 10 µM
[13] = second compound 1 µM, first compound 0.0316 µM
[14] = second compound 1 µM, first compound 0.1 µM
[15] = second compound 1 µM, first compound 0.316 µM
[16] = second compound 1 µM, first compound 1 µM
[17] = second compound 1 µM, first compound 3.16 µM
[18] = second compound 1 µM, first compound 10 µM
[19] = second compound 3.16 µM, first compound 0.0316 µM
[20] = second compound 3.16 µM, first compound 0.1 µM
[21] = second compound 3.16 µM, first compound 0.316 µM
[22] = second compound 3.16 µM, first compound 1 µM
[23] = second compound 3.16 µM, first compound 3.16 µM
[24] = second compound 3.16 µM, first compound 10 µM
[25] = second compound 10 µM, first compound 0.0316 µM
[26] = second compound 10 µM, first compound 0.1 µM
[27] = second compound 10 µM, first compound 0.316 µM
[28] = second compound 10 µM, first compound 1 µM
[29] = second compound 10 µM, first compound 3.16 µM
[30] = second compound 10 µM, first compound 10 µM
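Further: compound exposure lasted 7 days after spheroids had grown for 3 days.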

CCc1c2c(nc3ccc(O)cc13)-c1cc3c(c(=O)n1C2)COC(=O)[C@]3(O)CC + CC(CO)NC(=O)c1cc(-c2ccc(Cl)cc2)nn(-c2cnn(C)c2)c1=O
IC50 (second compound 0.1 µM): 0.0182 µM | IC50 (second compound 0.316 µM): 0.0264 µM | IC50 (second compound 1 µM): 0.0421 µM | IC50 (second compound 3.16 µM): 0.0221 µM | IC50 (second compound 10 µM): 0.0473 µM | viability, T/C (second compound 0.1 µM, first compound 0.000949 µM): 89% | viability, T/C (second compound 0.1 µM, first compound 0.003 µM): 83.5% | viability, T/C (second compound 0.1 µM, first compound 0.00949 µM): 56.5% | viability, T/C (second compound 0.1 µM, first compound 0.03 µM): 46.2% | viability, T/C (second compound 0.1 µM, first compound 0.0949 µM): 48% | viability, T/C (second compound 0.1 µM, first compound 0.3 µM): 35.7% | viability, T/C (second compound 0.316 µM, first compound 0.000949 µM): 83.3% | viability, T/C (second compound 0.316 µM, first compound 0.003 µM): 75.5% | viability, T/C (second compound 0.316 µM, first compound 0.00949 µM): 58.9% | viability, T/C (second compound 0.316 µM, first compound 0.03 µM): 49.4% | viability, T/C (second compound 0.316 µM, first compound 0.0949 µM): 44.8% | viability, T/C (second compound 0.316 µM, first compound 0.3 µM): 41.3% | viability, T/C (second compound 1 µM, first compound 0.000949 µM): 85.7% | viability, T/C (second compound 1 µM, first compound 0.003 µM): 75.4% | viability, T/C (second compound 1 µM, first compound 0.00949 µM): 61.3% | viability, T/C (second compound 1 µM, first compound 0.03 µM): 51.4% | viability, T/C (second compound 1 µM, first compound 0.0949 µM): 47.2% | viability, T/C (second compound 1 µM, first compound 0.3 µM): 41.5% | viability, T/C (second compound 3.16 µM, first compound 0.000949 µM): 72.3% | viability, T/C (second compound 3.16 µM, first compound 0.003 µM): 64.4% | viability, T/C (second compound 3.16 µM, first compound 0.00949 µM): 57.2% | viability, T/C (second compound 3.16 µM, first compound 0.03 µM): 45.3% | viability, T/C (second compound 3.16 µM, first compound 0.0949 µM): 42% | viability, T/C (second compound 3.16 µM, first compound 0.3 µM): 31.4% | viability, T/C (second compound 10 µM, first compound 0.000949 µM): 71.9% | viability, T/C (second compound 10 µM, first compound 0.003 µM): 69.4% | viability, T/C (second compound 10 µM, first compound 0.00949 µM): 61.7% | viability, T/C (second compound 10 µM, first compound 0.03 µM): 52.6% | viability, T/C (second compound 10 µM, first compound 0.0949 µM): 45.9% | viability, T/C (second compound 10 µM, first compound 0.3 µM): 28.4%

Nc1ccn(C2OC(CO)C(O)C2(F)F)c(=O)n1 (stereo not given) + CC(CO)NC(=O)c1cc(-c2ccc(Cl)cc2)nn(-c2cnn(C)c2)c1=O
IC50 (second compound 0.1 µM): 5.75 µM | IC50 (second compound 0.316 µM): 10 µM | IC50 (second compound 1 µM): 7.01 µM | IC50 (second compound 3.16 µM): 2.91 µM | IC50 (second compound 10 µM): 9.15 µM | viability, T/C [1]: 67.1% | viability, T/C [2]: 73.4% | viability, T/C [3]: 62% | viability, T/C [4]: 56.4% | viability, T/C [5]: 52.6% | viability, T/C [6]: 48.1% | viability, T/C [7]: 67% | viability, T/C [8]: 73.1% | viability, T/C [9]: 50.8% | viability, T/C [10]: 53.6% | viability, T/C [11]: 50.6% | viability, T/C [12]: 47% | viability, T/C [13]: 68.8% | viability, T/C [14]: 69.5% | viability, T/C [15]: 63.5% | viability, T/C [16]: 61.5% | viability, T/C [17]: 56.7% | viability, T/C [18]: 47.1% | viability, T/C [19]: 66.1% | viability, T/C [20]: 67.4% | viability, T/C [21]: 55.8% | viability, T/C [22]: 54.3% | viability, T/C [23]: 49.2% | viability, T/C [24]: 46.3% | viability, T/C [25]: 68.9% | viability, T/C [26]: 70.7% | viability, T/C [27]: 62% | viability, T/C [28]: 60.9% | viability, T/C [29]: 53.9% | viability, T/C [30]: 50%

O=C(c1cc(Cc2n[nH]c(=O)c3ccccc23)ccc1F)N1CCN(C(=O)C2CC2)CC1 + CC(CO)NC(=O)c1cc(-c2ccc(Cl)cc2)nn(-c2cnn(C)c2)c1=O
IC50 (second compound 0.1 µM): > 10 µM | IC50 (second compound 0.316 µM): > 10 µM | IC50 (second compound 1 µM): > 10 µM | IC50 (second compound 3.16 µM): > 10 µM | IC50 (second compound 10 µM): > 10 µM | viability, T/C [1]: 85.1% | viability, T/C [2]: 107% | viability, T/C [3]: 93.3% | viability, T/C [4]: 81.8% | viability, T/C [5]: 97% | viability, T/C [6]: 89.5% | viability, T/C [7]: 93% | viability, T/C [8]: 88.3% | viability, T/C [9]: 88.8% | viability, T/C [10]: 87.7% | viability, T/C [11]: 77.3% | viability, T/C [12]: 78% | viability, T/C [13]: 87.6% | viability, T/C [14]: 95.9% | viability, T/C [15]: 93.4% | viability, T/C [16]: 86.6% | viability, T/C [17]: 85.5% | viability, T/C [18]: 77.4% | viability, T/C [19]: 82.8% | viability, T/C [20]: 93.1% | viability, T/C [21]: 85.5% | viability, T/C [22]: 80.5% | viability, T/C [23]: 65.6% | viability, T/C [24]: 69.7% | viability, T/C [25]: 84.3% | viability, T/C [26]: 83.1% | viability, T/C [27]: 80% | viability, T/C [28]: 75.3% | viability, T/C [29]: 79.3% | viability, T/C [30]: 69.9%
